Here are results for ten molecules from patent publication US20230295157A1, “3-(1H-IMIDAZOL-2-YL)-2,3,8,8A-TETRAHYDROINDOLIZIN-5(1H)-ONE DERIVATIVES USEFUL AS FACTOR XIA INHIBITORS” (JANSSEN PHARMACEUTICA NV, priority 2020, published 2023).

One test addresses human plasma kallikrein (Homo sapiens (Human), UniProt P03952). Briefly: Kallikrein inhibition assay (FLINT) utilizing a quenched AMC peptide substrate. It is filed as biochemical. To be noted: 30 min preincubation, kinetic reads over 30 min, Z-Gly-Pro-Arg-AMC substrate 50 μM; read-out: Kallikrein Kin Inh IC50. The method, then:
Biological Example 2: Kallikrein Inhibition Assay Utilizing a Quenched AMC Peptide Substrate A fluorescence intensity (FLINT) based assay was used to monitor inhibition of human plasma kallikrein.
The Kallikrein FLINT assay was used with the following Z-Gly-Pro-Arg-AMC assay buffer: 50 mM Tris, pH 7.5, 100 mM NaCl, 5 mM CaCl2), 0.1 mg/mL BSA, 0.03% CHAPS. Assay buffer was prepared by mixing all ingredients fresh. 2×Z-Gly-Pro-Arg-AMC peptide substrate was prepared by diluting 10 mM stock into 1×assay buffer for a 100 μM working concentration (50 μM final concentration). The 2×kallikrein stock solution was prepared by diluting 14.76 μM stock in 1×assay buffer for a 4 nM working stock solution (2 nM final concentration).
Test compound(s) were run in an 11-point, 3-fold serial dilution with a final top compound concentration of 1 μM. Final DMSO in assay was 2%. Plasma kallikrein was pre-incubated for 30-minute with compound and then 50 μM substrate was added to initiate the reaction. The assay was run with kinetic (KIN) reads at 5 min intervals over 30 minutes. […] More specifically, the assay was run as follows: • 100 nL of 0.1 mM test compound was dispensed into black 384-well non-binding Greiner BioOne 784900 plate for 1 μM final concentration; • 5 μL of 1×assay buffer was dispensed to columns 24 (low control) and 5 μL 2×human kallikrein enzyme solution was dispensed to columns 1-23 (column 23 high control); • the plate was centrifuged with a “cover” plate at 500 rpm for 1 min • the plate was pre-incubated for 30 minutes at room temperature with plate covered; • 5 μL of 2×Z-Gly-Pro-Arg-AMC peptide substrate was dispensed into the entire plate, columns 1-24; • the plate was centrifuged with a “cover” plate at 500 rpm for 1 min; • the plate was read monitoring fluorescence intensity on the BMG PHERAStar at room temperature, using fluorescence module 340 nm/440 nm.
(§1) Percent inhibition (IC50) curves were generated per compound tested, and data was analyzed using a 4-parameter logistic fit using GeneData Screener. The relative fluorescence unit (RFU) values were normalized to percent inhibition using the following equation:
% inhibition=((HC-LC)−(compound-LC)\(HC-LC))*100 where LC—low control=mean signal of human kallikrein enzyme or 100% inhibition of human kallikrein enzyme; HC—high control=mean signal of Factor XIa+Z-Gly-Pro-Arg-AMC peptide substrate with DMSO only.
(§2) An 11-point dose response curve for the test compound(s) was generated using GENDATA to determine IC50 value based on the following equation:
Y=Bottom+(Top-Bottom)/(1+10^((logIC50−X)*HillSlope)) where Y is the % inhibition in the presence of X inhibitor concentration, Top=high control=mean signal of human kallikrein enzyme+Z-Gly-Pro-Arg-AMC peptide substrate with DMSO only; Bottom=low control−mean signal of no human kallikrein enzyme or 100% inhibition of human kallikrein enzyme; HillSlope—Hill coefficient; and IC50=concentration of compound with 50% inhibition in relation to top/high control.

A further test deals with Factor XIa (Homo sapiens (Human), UniProt P03951). The experiment in a line: Factor XIa inhibition assay (FLINT) utilizing a fluorophore-quencher pair peptide substrate. It is filed as biochemical. The note with it: 30 min preincubation, kinetic reads over 30 min, read-out: FXIa Kin Inh IC50.
From the text: Biological Example 1: Factor XIa Inhibition Assay Utilizing a Fluorophore-Quencher Pair Peptide Substrate
A fluorescence intensity (FLINT) based assay was used to monitor inhibition of Factor XIa. The peptide substrate, 5Fam-[…]-K5Tamra (purchased from New England Peptide) was chosen based on the FXI sequence. Conversion of zymogen […]. The custom peptide used in this assay was based on the Arg146 cleavage site of FXI. The peptide substrate was designed with a fluorophore-quencher pair, where the fluorescence is quenched until FXIa cleaves the 8-mer peptide after the Arg residue.
The Factor XIa FLINT assay was used with the following 5Fam-[…]-K5Tamra assay buffer: 50 mM Tris, pH 7.5, 100 mM NaCl, 5 mM CaCl2), 0.1 mg/mL BSA, 0.03% CHAPS. Assay buffer was prepared by mixing all ingredients fresh. 5Fam-[…]-K5Tamra peptide substrate was first prepared at 10 mM in 100% DMSO, then diluted to 3 mM in 100% DMSO. Assay buffer was then added directly to the 3 mM stock of substrate to prepare the 30 μM 2× working concentration (15 μM final concentration). The 2×Factor XIa stock solution was prepared by diluting 6.562 μM stock in 1×assay buffer for a 200 μM working stock solution (100 μM final concentration).
Test compound(s) were run in an 11-point, 3-fold serial dilution with a final top compound concentration of 100 nM. Final DMSO in assay was 2%. FXIa was preincubated with compound for 30-minutes and then substrate was added to initiate the reaction. The assay was run with kinetic (KIN) reads at 5 min intervals over 30 minutes. The time course was linear using 100 μM FXIa greater than 30 minutes. More specifically, the assay was run as follows: • 100 nL of 0.01 mM test compound was dispensed into black 384 well non-binding Greiner BioOne 784900 plate for 0.1 μM final concentration; • 5 μL of 1×assay buffer was dispensed to column 24 (low control) and 5 μL 2×Factor XIa solution was dispensed to columns 1-23 (column 23 high control); • the plate was centrifuged with a “cover” plate at 500 rpm for 1 min • the plate was pre-incubated for 30 minutes at room temperature with plate covered; • 5 μL of 2×5Fam-[…]-K5Tamra peptide substrate was dispensed into the entire plate, columns 1-24; • the plate was centrifuged with a “cover” plate at 500 rpm for 1 min; • the plate was read monitoring fluorescence intensity on the BMG PHERAStar at room temperature, using fluorescence module 485 nm/520 nm.
as §1
% inhibition=((HC-LC)−(compound−LC)/(HC-LC))*100
where LC—low control=mean signal of no Factor XIa or 100% inhibition of Factor XIa; HC—high control=mean signal of Factor XIa+5Fam-[…]-K5Tamra peptide substrate with DMSO only.
as §2
Y=Bottom+(Top-Bottom)/(1+10^((logIC50-X)*HillSlope))
where Y is the % inhibition in the presence of X inhibitor concentration, Top=high control=mean signal of Factor XIa+5Fam-[…] K5Tamra peptide substrate with DMSO only; Bottom=low control−mean signal of no Factor XIa or 100% inhibition of Factor XIa; HillSlope—Hill coefficient; and IC50=concentration of compound with 50% inhibition in relation to top/high control.
Representative compounds of the present invention were tested according to the procedure described in Biological Example 1 and Biological Example 2 above, with results as listed in Table 3, below.

Setting [1] is: 5Fam-[…]-K5Tamra substrate 15 μM.

Like-named read-outs stand apart in the source and are kept apart here.

Factor XIa, sequence (P03951 388-625): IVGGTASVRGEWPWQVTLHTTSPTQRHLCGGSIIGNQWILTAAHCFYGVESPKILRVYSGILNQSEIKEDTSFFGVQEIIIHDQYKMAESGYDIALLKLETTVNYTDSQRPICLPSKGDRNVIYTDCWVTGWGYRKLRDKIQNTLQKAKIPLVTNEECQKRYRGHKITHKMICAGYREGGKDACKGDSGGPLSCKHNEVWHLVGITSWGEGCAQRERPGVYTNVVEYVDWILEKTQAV
Factor XIa, sequence (P03951 19-387 partner): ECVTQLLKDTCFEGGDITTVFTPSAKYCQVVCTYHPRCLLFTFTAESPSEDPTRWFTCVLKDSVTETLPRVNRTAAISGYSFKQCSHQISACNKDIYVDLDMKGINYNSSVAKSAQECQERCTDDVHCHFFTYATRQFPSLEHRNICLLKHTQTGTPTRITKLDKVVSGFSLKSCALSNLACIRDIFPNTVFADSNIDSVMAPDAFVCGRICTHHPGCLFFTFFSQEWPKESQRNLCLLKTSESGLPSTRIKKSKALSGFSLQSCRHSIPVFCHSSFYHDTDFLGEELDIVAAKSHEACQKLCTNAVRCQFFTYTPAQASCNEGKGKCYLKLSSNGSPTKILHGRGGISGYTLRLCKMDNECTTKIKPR
human plasma kallikrein, sequence (P03952 391-638): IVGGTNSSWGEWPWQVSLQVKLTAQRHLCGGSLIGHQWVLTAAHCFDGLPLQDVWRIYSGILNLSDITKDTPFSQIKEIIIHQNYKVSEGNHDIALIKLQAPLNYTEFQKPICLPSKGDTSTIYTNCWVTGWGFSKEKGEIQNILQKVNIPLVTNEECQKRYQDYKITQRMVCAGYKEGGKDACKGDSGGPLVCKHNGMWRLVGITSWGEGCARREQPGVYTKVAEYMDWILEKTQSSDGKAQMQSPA
human plasma kallikrein, sequence (P03952 20-390 partner): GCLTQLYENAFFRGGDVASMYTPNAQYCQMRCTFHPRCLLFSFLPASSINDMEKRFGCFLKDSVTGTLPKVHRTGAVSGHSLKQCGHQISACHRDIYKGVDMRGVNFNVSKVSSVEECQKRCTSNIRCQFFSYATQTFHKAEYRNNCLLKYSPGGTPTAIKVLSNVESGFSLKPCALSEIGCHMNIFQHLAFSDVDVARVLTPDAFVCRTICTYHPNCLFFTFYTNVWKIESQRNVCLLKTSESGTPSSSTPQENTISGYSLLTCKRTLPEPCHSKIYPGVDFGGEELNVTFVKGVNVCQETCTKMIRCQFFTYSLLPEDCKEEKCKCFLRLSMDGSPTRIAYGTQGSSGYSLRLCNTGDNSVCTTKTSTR

As a reminder, the IC50 is the midpoint of a concentration-inhibition curve. Regarding `O=C1C=C(c2c(-n3cnnn3)ccc(Cl)c2F)CC2CC[C@H](c3nc(F)c(-c4ccnc(N[C@H]5CCOC5)c4F)[nH]3)N12` (relative stereo) [Example 77, (3R*)-7-(3-chloro-2-fluoro-6-(1H-tetrazol-1-yl)phenyl)-3-(4-fluoro-5-(3-fluoro-2-(((S)-tetrahydrofuran-3-yl)amino)pyridin-4-yl)-1H-imidazol-2-yl)-2,3,8,8a-tetrahydroindolizin-5(1H)-one], the values for the IC50 on human plasma kallikrein and at Factor XIa (setting [1]) were 5 nM and 1.3 nM, respectively.
Turning to `O=C1C=C(c2c(-n3cnnn3)ccc(Cl)c2F)C[C@H]2CC[C@H](c3ncc(-c4ccnc(-n5cnnc5)c4F)[nH]3)N12` (relative stereo) [Example 78, (3R*,8aR)-7-(3-chloro-2-fluoro-6-(1H-tetrazol-1-yl)phenyl)-3-(5-(3-fluoro-2-(4H-1,2,4-triazol-4-yl)pyridin-4-yl)-1H-imidazol-2-yl)-2,3,8,8a-tetrahydroindolizin-5(1H)-one], the half-inhibitory concentration (IC50) on human plasma kallikrein was determined as 136 nM; at Factor XIa (setting [1]) it was 40.9 nM.
With `C[C@H](Oc1nccc(-c2cnc([C@@H]3CC[C@H]4CC(c5c(-n6cnnn6)ccc(Cl)c5F)=CC(=O)N43)[nH]2)c1F)c1nnco1` (relative stereo) [Example 127, (3S*,8aS*)-3-(5-(2-((S*)-1-(1,3,4-oxadiazol-2-yl)ethoxy)-3-fluoropyridin-4-yl)-1H-imidazol-2-yl)-7-(3-chloro-2-fluoro-6-(1H-tetrazol-1-yl)phenyl)-2,3,8,8a-tetrahydroindolizin-5(1H)-one], the half-maximal inhibitory concentration (IC50) at human plasma kallikrein was determined as 12.9 nM; at Factor XIa (setting [1]) it was 10.9 nM.
With `C[C@H](Oc1nccc(-c2cnc([C@@H]3CC[C@@H]4CC(c5c(-n6cnnn6)ccc(Cl)c5F)=CC(=O)N43)[nH]2)c1F)c1nnco1` (relative stereo) [Example 128, (3S*,8aR*)-3-(5-(2-((S*)-1-(1,3,4-oxadiazol-2-yl)ethoxy)-3-fluoropyridin-4-yl)-1H-imidazol-2-yl)-7-(3-chloro-2-fluoro-6-(1H-tetrazol-1-yl)phenyl)-2,3,8,8a-tetrahydroindolizin-5(1H)-one], the IC50 came to 12.8 nM at human plasma kallikrein and 6.1 nM at Factor XIa (setting [1]).
The corresponding values for `[2H]c1c(NC)nc(F)c(-c2cnc([C@H]3CC[C@@H]4CC(c5c(-n6cnnn6)ccc(Cl)c5F)=CC(=O)N43)[nH]2)c1[2H]` (relative stereo) [Example 133, (3R*,8aR)-7-(3-chloro-2-fluoro-6-(1H-tetrazol-1-yl)phenyl)-3-(5-(2-fluoro-6-(methylamino)pyridin-3-yl-4,5-d2)-1H-imidazol-2-yl)-2,3,8,8a-tetrahydroindolizin-5(1H)-one] are 7.5 nM and 0.7 nM.
For the molecule `O=C1C=C(c2c(-n3cnnn3)ccc(Cl)c2F)C[C@H]2CC[C@H](c3ncc(-c4c[nH]c5ccccc45)[nH]3)N12` (relative stereo) [Example 137, (3R*,8aR)-3-(5-(1H-indol-3-yl)-1H-imidazol-2-yl)-7-(3-chloro-2-fluoro-6-(1H-tetrazol-1-yl)phenyl)-2,3,8,8a-tetrahydroindolizin-5(1H)-one], the half-inhibitory concentration (IC50) on human plasma kallikrein is 7.7 nM; on Factor XIa (setting [1]), 4.6 nM.
Turning to `O=C1C=C(c2c(-n3cnnn3)ccc(Cl)c2F)C[C@H]2CC[C@@H](c3ncc(-c4ccnc(C5(O)CC5)c4Cl)[nH]3)N12` (relative stereo) [Example 155, (3*S,8aR)-3-(5-(3-chloro-2-(1-hydroxycyclopropyl)pyridin-4-yl)-1H-imidazol-2-yl)-7-(3-chloro-2-fluoro-6-(1H-tetrazol-1-yl)phenyl)-2,3,8,8a-tetrahydroindolizin-5(1H)-one], the IC50 amounted to 52.4 nM at human plasma kallikrein and 4.9 nM on Factor XIa (setting [1]).
Regarding `O=C1C=C(c2c(-n3cnnn3)ccc(Cl)c2F)C[C@H]2CC[C@H](c3ncc(-c4ccnc(OC[C@@H]5COCCO5)c4F)[nH]3)N12` (relative stereo) [Example 156, (3*R,8aR)-3-(5-(2-(((S)-1,4-dioxan-2-yl)methoxy)-3-fluoropyridin-4-yl)-1H-imidazol-2-yl)-7-(3-chloro-2-fluoro-6-(1H-tetrazol-1-yl)phenyl)-2,3,8,8a-tetrahydroindolizin-5(1H)-one], the figures for the IC50 on human plasma kallikrein and at Factor XIa (setting [1]) were 19.1 nM and 13.8 nM, respectively.
Take `O=C1C=C(c2c(-n3cnnn3)ccc(Cl)c2F)C[C@H]2CC[C@@H](c3ncc(-c4ccnc(C(F)(F)CO)c4F)[nH]3)N12` (relative stereo) [Example 160, (3*S,8aR)-7-(3-chloro-2-fluoro-6-(1H-tetrazol-1-yl)phenyl)-3-(5-(2-(1,1-difluoro-2-hydroxyethyl)-3-fluoropyridin-4-yl)-1H-imidazol-2-yl)-2,3,8,8a-tetrahydroindolizin-5(1H)-one]: the IC50 was 27.8 nM on human plasma kallikrein and 8.4 nM at Factor XIa (setting [1]).
On to `C[C@H](C#N)c1nccc(-c2cnc([C@@H]3CCC4CC(c5c(-n6cnnn6)ccc(Cl)c5F)=CC(=O)N43)[nH]2)c1F` (relative stereo) [Example 163, (2*S)-2-(4-(2-((3S)-7-(3-chloro-2-fluoro-6-(1H-tetrazol-1-yl)phenyl)-5-oxo-1,2,3,5,8,8a-hexahydroindolizin-3-yl)-1H-imidazol-5-yl)-3-fluoropyridin-2-yl)propanenitrile], for which the results for the half-inhibitory concentration (IC50) on human plasma kallikrein and on Factor XIa (5Fam-KLTRAETV-K5Tamra substrate 15 μM) were 28.8 nM and 7.4 nM, respectively.
